Experimental data from patent publication US20100173931A1, “HARMINE DERIVATIVES FOR REDUCING BODY WEIGHT” (OsteoGeneX Inc., priority 2009, published 2010).

Assay: Reduction of body weight with harmine in mice (intraperitoneal injection, 4 weeks)
Type: in vivo
Settings: intraperitoneal in saline, 4 weeks (30 days), initial body weight 30 g
Description: In order to determine the effect of harmine and harmine derivatives in reducing body weight, we administered harmine to mice and tracked their body weights for 4 weeks (30 days). Harmine was solublized in saline and administered via intraperitoneal injection. Animals were weighed weekly.
Mice (6 per group) were divided into seven groups and given one of the following treatments: • 1. 5 mg harmine/kg body weight (Low) • 2. 10 mg harmine/kg body weight (Med) • 3. 20 mg harmine/kg body weight (High) • 4. Saline • 5. 3 mg/kg body weight (Positive control 2) • 6. 5 mg/kg body weight (Positive control low) • 7. 10 mg/kg body weight (Positive control high)
Even at the low dose, the animals lost more than 5% of their body weight.

## COc1ccc2c(c1)[nH]c1c(C)nccc12 [harmine]
Highest dose 20 mg harmine/kg body weight
  reduction in body weight: 6%
Low dose 5 mg harmine/kg body weight
  reduction in body weight: more than 5%
